From patent US8791267B2, “Biaryl PDE4 inhibitors for treating inflammatory, cardiovascular and CNS disorders” (Decode Genetics EHF, priority 2007, dated 2014) come the findings set out here.

Structures can show the parent of a compound that is named as a salt.

For this experiment, the target named is PDE4 (Homo sapiens, UniProt Q08499). In words: In-vitro assay for PDE4 enzymes, real-time enzyme-coupled spectrophotometric assay (Table 9). Type of experiment: biochemical. To be noted: human PDE4D; activity class, Table 9; read-out: hPDE4D.
PDE4, sequence (Q08499 whole entry): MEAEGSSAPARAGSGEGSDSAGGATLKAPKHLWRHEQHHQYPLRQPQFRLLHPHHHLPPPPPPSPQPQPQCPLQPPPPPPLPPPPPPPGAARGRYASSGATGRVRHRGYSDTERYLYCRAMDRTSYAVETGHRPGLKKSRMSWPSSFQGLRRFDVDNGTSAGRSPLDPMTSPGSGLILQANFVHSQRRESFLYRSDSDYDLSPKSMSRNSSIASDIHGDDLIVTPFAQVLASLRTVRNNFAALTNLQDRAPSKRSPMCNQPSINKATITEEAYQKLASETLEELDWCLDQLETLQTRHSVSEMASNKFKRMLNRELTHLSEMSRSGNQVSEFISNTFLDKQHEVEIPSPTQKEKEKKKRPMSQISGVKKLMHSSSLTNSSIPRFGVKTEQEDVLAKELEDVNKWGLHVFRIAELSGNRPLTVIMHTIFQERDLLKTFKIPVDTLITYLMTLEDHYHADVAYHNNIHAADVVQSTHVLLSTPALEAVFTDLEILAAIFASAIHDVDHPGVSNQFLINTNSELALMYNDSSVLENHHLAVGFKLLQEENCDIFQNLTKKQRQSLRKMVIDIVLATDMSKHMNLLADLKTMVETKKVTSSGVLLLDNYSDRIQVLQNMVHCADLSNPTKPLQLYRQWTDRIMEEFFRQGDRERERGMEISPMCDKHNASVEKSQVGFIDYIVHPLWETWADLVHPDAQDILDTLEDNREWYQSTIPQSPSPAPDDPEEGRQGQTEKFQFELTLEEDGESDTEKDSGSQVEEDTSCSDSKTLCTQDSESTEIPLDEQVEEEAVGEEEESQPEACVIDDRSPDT
In the case of `COc1ccc([C@@](C)(O)c2ccc(NC(C)=O)cc2)c(F)c1-c1cccc(Cl)c1` (single isomer, unassigned) [P-561], the IC50 was below 5 µM.
The value for `COc1ccc(Cc2ccc(F)cc2)cc1-c1ccc2c(c1)OCO2` [P-003, 5-[5-(4-Fluoro-benzyl)-2-methoxy-phenyl]-benzo[1,3]dioxole] was below 5 µM; that for `COc1ccc(Cn2cncn2)cc1-c1cccc([N+](=O)[O-])c1` [P-005] was below 5 µM; that for `COCCOc1ccc(Cc2ccc(=O)n(CCOC)n2)cc1-c1cccc([N+](=O)[O-])c1` [P-018, 6-[6-(2-Methoxy-ethoxy)-3′-nitro-biphenyl-3-ylmethyl]-2-(2-methoxy-ethyl)-2H-pyridazin-3-one] was 5 to 20 µM.
Turning to `COc1ccc(CN2CCOCC2)nc1-c1cccc([N+](=O)[O-])c1` [P-026, 4-[5-methoxy-6-(3-nitro-phenyl)-pyridin-2-ylmethyl]-morpholine], the IC50 lay within 5 to 20 µM.
For the molecule `CNC(=O)Cc1ccc(OC)c(-c2cccc([N+](=O)[O-])c2)c1` [P-027], the IC50 was below 5 µM.
On to `COc1ccc(CN2C(=O)c3ccccc3C2=O)cc1-c1ccc2c(c1)OCO2` [P-052, 2-(3-Benzo[1,3]dioxol-5-yl-4-methoxy-benzyl)-isoindole-1,3-dione], for which the IC50 was below 5 µM.
As to `COc1ccc(Cn2cncn2)nc1-c1cccc(C(F)(F)F)c1` [P-064, 3-methoxy-6-[1,2,4]triazol-1-ylmethyl-2-(3-trifluoromethyl-phenyl)-pyridine], the IC50 is 5 to 20 µM.
In the case of `COc1ccc(Cc2ccc(F)cc2)nc1-c1cccc(C(F)(F)F)c1` [P-065, 6-(4-fluoro-benzyl)-3-methoxy-2-(3-trifluoromethyl-phenyl)-pyridine], the IC50 was below 5 µM.
For `COc1ccc(CN2CC[C@@H](O)C2)cc1-c1cccc(C(F)(F)F)c1` [P-078], the IC50 lay within 5 to 20 µM.
With `O=[N+]([O-])c1cccc(-c2cc(Cc3ccc(F)cc3)ccc2OC(F)(F)F)c1` [P-080, 5-(4-Fluoro-benzyl)-3′-nitro-2-trifluoromethoxy-biphenyl], the IC50 was below 5 µM.
With `COc1ccc(Cc2ccc(F)cc2)c(OC)c1-c1cccc([N+](=O)[O-])c1` [P-097] the figure was below 5 µM; with `COc1ccc(Cc2ccc(F)cc2)c(F)c1-c1cccc(N)c1` [P-098], below 5 µM; with `COCc1cccc(-c2cc(Cn3cncn3)ccc2OC)c1` [P-108, 1-(6-Methoxy-3′-methoxymethyl-biphenyl-3-ylmethyl)-1H-[1,2,4]triazole], below 5 µM.
For the molecule `COc1ccc(CN2C(=O)CC[C@@H]2CO)cc1-c1cccc([N+](=O)[O-])c1` [P-132, (R)-5-Hydroxymethyl-1-(6-methoxy-3′-nitro-biphenyl-3-ylmethyl)-pyrrolidin-2-one], the IC50 was 20 to 40 µM.
`COc1ccc(C(O)c2ccc(C#N)cc2)c(O)c1-c1cccc([N+](=O)[O-])c1` (stereo not drawn) [P-137, 4-[Hydroxy-(2-hydroxy-6-methoxy-3′-nitro-biphenyl-3-yl)-methyl]benzonitrile]: the IC50 is below 5 µM.
For `COc1ccc(Cc2ccc(F)cc2)c(F)c1-c1cccc(Br)c1` [P-139], the IC50 is below 5 µM.
For `COc1ccc(Cc2ccc(F)cc2)cc1-c1ccc2c(c1)OC(F)(F)O2` [P-141, 2,2-Difluoro-5-[5-(4-fluoro-benzyl)-2-methoxy-phenyl]-benzo[1,3]dioxole], the IC50 is below 5 µM.
For the molecule `COc1ccc(CO)c(O)c1-c1cccc([N+](=O)[O-])c1` [P-149], the IC50 is below 5 µM.
For `COc1ccc(Cc2ccc(F)cc2)cc1-c1cccc(SC)c1` [P-151, 5-(4-Fluoro-benzyl)-2-methoxy-3′-methylsulfanyl-biphenyl], the IC50 is below 5 µM.
Take `COc1ccc(Cc2ccc(N(C)C)cc2)c(O)c1-c1cccc([N+](=O)[O-])c1` [P-157, 3-(4-Dimethylamino-benzyl)-6-methoxy-3′-nitro-biphenyl-2-ol]: the IC50 was below 5 µM.
Consider `COc1ccc(Cc2ccccc2CNC=O)cc1-c1cccc([N+](=O)[O-])c1` [P-158, N-[2-(6-Methoxy-3′-nitro-biphenyl-3-ylmethyl)-benzyl]-formamide], for which the IC50 fell in the range of 5 to 20 µM.
Consider `COc1ccc(Cc2cccc(CNC(=O)OC(C)(C)C)c2)cc1-c1cccc([N+](=O)[O-])c1` [P-160, [3-(6-Methoxy-3′-nitro-biphenyl-3-ylmethyl)-benzyl]-carbamic acid tert-butyl ester], for which the IC50 was 5 to 20 µM.
With `COc1ccc(Cc2ccc(F)cc2)c(C#N)c1-c1cccc([N+](=O)[O-])c1` [P-163, 3-(4-fluoro-benzyl)-6-methoxy-3′-nitro-biphenyl-2-carbonitrile], the IC50 was below 5 µM.
For the molecule `COc1ccc(Cc2ccc(NC(C)=O)cc2)c(F)c1-c1cccc(N)c1` [P-167], the IC50 was below 5 µM.
Take `COc1ccc(Cn2cncn2)cc1-c1cccc([S+](C)[O-])c1` (stereo not drawn) [P-169, 1-(3′-Methanesulfinyl-6-methoxy-biphenyl-3-ylmethyl)-1H-[1,2,4]triazole]: the IC50 lay within 5 to 20 µM.
In the case of `COc1ccc(-c2cc(Cc3ccc(F)cc3)ccc2OC)cc1C(C)=O` [P-170, 1-[5′-(4-Fluoro-benzyl)-4,2′-dimethoxy-biphenyl-3-yl]-ethanone], the IC50 is below 5 µM.
On to `COc1ccc(COc2ccc(NC(C)=O)cc2)c(F)c1-c1cccc(Br)c1` [P-194], for which the IC50 is below 5 µM.
Consider `CC(=O)Nc1ccc(NCc2ccc(O)c(-c3cccc(Cl)c3)c2F)cc1` [P-203, N-{4-[(3′-Chloro-2-fluoro-6-hydroxy-biphenyl-3-ylmethyl)-amino]-phenyl}-acetamide], for which the IC50 is below 5 µM.
Regarding `COc1ccc(Cc2ccc(OCCN3CCOCC3)cc2)c(F)c1-c1cccc(Cl)c1` [P-219], the IC50 was below 5 µM.
As to `COc1ccc(Cc2cccc(OCCN3CCOCC3)c2)c(F)c1-c1cccc(Cl)c1` [P-220], the IC50 was below 5 µM.
In the case of `COc1ccc(COc2cccc(NC(C)=O)c2)c(F)c1-c1cccc(Cl)c1` [P-231], the IC50 was below 5 µM.
With `COc1ccc(COc2cccc(N)c2)c(F)c1-c1cccc(Cl)c1` [P-232] the figure was below 5 µM.
Turning to `COc1ccc(Cc2ccc(NC(=O)CN(C)C)cc2)c(F)c1-c1cccc(Cl)c1` [P-238, N-[4-(3′-chloro-2-fluoro-6-methoxy-biphenyl-3-ylmethyl)-phenyl]-2-dimethylamino-acetamide], the IC50 is below 5 µM.
The value for `COc1ccc(Cc2ccc(N(C)C)cc2)cc1-c1cccc(Cl)c1` [P-241, [4-(3′-Chloro-6-methoxy-biphenyl-3-ylmethyl)-phenyl]-dimethyl-amine] was below 5 µM; that for `CCNc1ccc(Cc2ccc(OC)c(-c3cccc(Cl)c3)c2)cc1` [P-247, [4-(3′-Chloro-6-methoxy-biphenyl-3-ylmethyl)-phenyl]-ethylamine; HCl salt] was below 5 µM; that for `COc1ccc(Cc2ccc([N+](=O)[O-])c(O)c2)c(F)c1-c1cccc(Cl)c1` [P-257] was below 5 µM.
The value for `COc1ccc(Cc2cccc(NS(C)(=O)=O)c2)cc1-c1cccc(Cl)c1` [P-271, N-[3-(3′-Chloro-6-methoxy-biphenyl-3-ylmethyl)-phenyl]-methanesulfonamide] was 5 to 20 µM.
With `COc1ccc(Cc2ccc(NC(=O)CN)cc2)c(F)c1-c1cccc(Cl)c1` [P-273] the figure was below 5 µM; with `COc1ccc(Cc2ccc(CNS(C)(=O)=O)c(F)c2)c(F)c1-c1cccc(Cl)c1` [P-286], below 5 µM; with `COc1ccc(N(C)c2ccc(N)cc2)cc1-c1cccc(Cl)c1` [P-288, N-(3′-Chloro-6-methoxy-biphenyl-3-yl)-N-methyl-benzene-1,4-diamine; hydrochloride], below 5 µM.
With `CNCC(=O)Nc1ccc(Cc2ccc(OC)c(-c3cccc(Cl)c3)c2F)cc1` [P-289], the IC50 was below 5 µM.
Take `COc1ccc(N(C)c2ccc(NC(N)=O)cc2)cc1-c1cccc(Cl)c1` [P-293, {4-[(3′-Chloro-6-methoxy-biphenyl-3-yl)-methyl-amino]-phenyl}-urea]: the IC50 is below 5 µM.
Consider `COc1ccc(Nc2ccc(NC(N)=O)cc2)cc1-c1cccc(Cl)c1` [P-294, [4-(3′-Chloro-6-methoxy-biphenyl-3-ylamino)-phenyl]-urea], for which the IC50 is below 5 µM.
The value for `COc1ccc(Cc2nnc(N)o2)cc1-c1cccc(Cl)c1` [P-306, 5-(3′-Chloro-6-methoxy-biphenyl-3-ylmethyl)-[1,3,4]oxadiazol-2-ylamine] was 5 to 20 µM; that for `CCOc1ccc(Cc2ccc(NC(C)=O)cc2)c(F)c1-c1cccc(Br)c1` [P-322] was below 5 µM.
In the case of `COc1ccc(Cc2ccc(N(C)C)cc2)c(F)c1-c1cccc(C(C)=O)c1` [P-326, 1-[3′-(4-Dimethylamino-benzyl)-2′-fluoro-6′-methoxy-biphenyl-3-yl]-ethanone], the IC50 was below 5 µM.
Turning to `COc1ccc(Cc2ccc(NC(N)=O)cc2)c(F)c1-c1cccc(C(C)O)c1` (stereo not drawn) [P-340, {4-[2-Fluoro-3′-(1-hydroxy-ethyl)-6-methoxy-biphenyl-3-ylmethyl]-phenyl}-urea], the IC50 was below 5 µM.
Consider `COc1ccc(Cc2ccc(N3CCOCC3)nc2)c(F)c1-c1cccc(Cl)c1` [P-377], for which the IC50 is below 5 µM.
With `COc1ccc(Cc2ccc(F)cc2)cc1-n1cc(Cl)cn1` [P-380, 4-Chloro-1-[5-(4-fluoro-benzyl)-2-methoxy-phenyl]-1H-pyrazole] the figure was below 5 µM; with `COc1ccc(Cc2ccc(NC(C)=O)cc2)c(F)c1-c1cccc(N2CCCC2)c1` [P-381, N-[4-(2-Fluoro-6-methoxy-3′-pyrrolidin-1-yl-biphenyl-3-ylmethyl)-phenyl]-acetamide], below 5 µM; with `COc1ccc(Cc2ccc(F)cc2)cc1-c1cccc(N2CCOCC2)c1` [P-385, 4-[5′-(4-Fluoro-benzyl)-2′-methoxy-biphenyl-3-yl]-morpholine], 5 to 20 µM.
Turning to `COc1ccc(Cc2ccc(F)cc2)cc1-n1cc(-c2ccncc2)cn1` [P-389, 4-{1-[5-(4-Fluoro-benzyl)-2-methoxy-phenyl]-1H-pyrazol-4-yl}-pyridine], the IC50 is 5 to 20 µM.
The value for `COc1ccc(Cc2ccc(NC(C)=O)cc2)c(F)c1-c1cccc(N2CCOCC2)c1` [P-390, N-[4-(2-Fluoro-6-methoxy-3′-morpholin-4-yl-biphenyl-3-ylmethyl)-phenyl]-acetamide] was 5 to 20 µM.
